Measured values taken from publication PMC9959349, “Discovery of the 3-Amino-1,2,4-triazine-Based Library as Selective PDK1 Inhibitors with Therapeutic Potential in Highly Aggressive Pancreatic Ductal Adenocarcinoma” (International Journal of Molecular Sciences, 2023).

Key:
PSN-1 cells [1] = assay: Cellular lactate production; format: cell-based, human; settings: IC50 concentrations
Protocol: Cells were treated with DAP or representative compounds at IC50 concentrations and the changes in OCR and in the intracellular lactate formation were monitored.
PSN-1 cells (2 × 10^5) were seeded in a six-well plate in a growth medium (4 mL). After 24 h, cells were incubated for 60 min with IC50 concentrations of tested compounds. Changes in lactate production were assessed via colorimetric microplate assay (Lactate assay kit®, Merk, St. Louis, MO, USA) according to the manufacturer’s instructions. The intracellular lactate concentration was detected by measuring the absorbance of each well at 570 nm, using a Bio-Rad 680 microplate reader.

PSN-1 cells [2] = assay: TEM analysis of mitochondria; format: cell-based, human; settings: 24 h, IC50 concentrations
Protocol: In addition, TEM analyses were performed on PSN-1 cancer cells after 24 h treatment with IC50 concentrations of the representative compounds 5i and 6h.
About 10^6 PSN-1 cancer cells were seeded in 24-well plates and, after 24 h incubation, were treated with IC50 concentrations of tested compounds and incubated for an additional 24 h. Cells were then washed with cold PBS, harvested, and directly fixed with 1.5% glutaraldehyde buffer with 0.2 M sodium cacodylate, pH 7.4. After washing with buffer and postfixation with 1% OsO4 in 0.2 M cacodylate buffer, specimens were dehydrated and embedded in epoxy resin (Epon Araldite). Sagittal serial sections (1 μm) were counterstained with toluidine blue; thin sections (90 nm) were given contrast by staining with uranyl acetate and lead citrate. Micrographs were taken with a Hitachi H-600 electron microscope (Hitachi, Tokyo, Japan) operating at 75 kV. All photos were typeset in Corel Draw 11.

PSN-1 cells [3] = assay: 3D spheroid cytotoxicity, acid phosphatase (APH) assay, PSN-1; settings: read-out: IC50 ±S.D. PSN-1 (3D cytotoxicity); spheroids, 72 h, APH test
Protocol: (§1) The PDAC cancer spheroids were treated with tested compounds for 72 h, and cell viability was assessed by means of the acid phosphatase (APH) assay (Table 3).
(§2) An APH-modified assay was used for determining cell viability in 3D spheroids, as previously described [61]. Briefly, the pre-seeded spheroids were treated with fresh medium containing the compound to be studied at the appropriate concentration (range 2.5–200 μM). Triplicate cultures were established for each treatment. After 72 h, each well was treated with 100 μL of the assay buffer (0.1 M sodium acetate, 0.1% Triton-X-100, supplemented with ImmunoPure p-nitrophenyl phosphate; Sigma Chemical Co., Ltd.) and, following 3 h of incubation, 10 μL of 1 M NaOH solution was added. […] The mean absorbance for each drug dose was expressed as a percentage of the control untreated well absorbance (T/C) and plotted vs. drug concentration. […] The evaluation was based on means from at least four independent experiments.

BxPC-3 cells = assay: 3D spheroid cytotoxicity, acid phosphatase (APH) assay, BxPC-3; settings: read-out: IC50 ±S.D. BxPC-3 (3D cytotoxicity); spheroids, 72 h, APH test
Protocol: as §1, §2

Question: For `Cn1cc(-c2nnc(N)nc2-c2cn(C)c3ccc(F)cc23)c2ccccc21` [5i], which lactate production (PSN-1 cells [1]) is on record?
Answer: more potent than DAP

Question: What about the “mitochondrial morphology (TEM)” value (PSN-1 cells [2]) of the same molecule?
Answer: dramatic swelling of the mitochondria

Question: What about the IC50 (PSN-1 cells [3]) of the same molecule?
Answer: 4.9 ± 0.8 µM

Question: What about the IC50 (BxPC-3 cells) of the same molecule?
Answer: 34.1 ± 1.5 µM
